According to ChEMBL document CHEMBL1129884, “Hindered rotation congeners of mazapertine: High affinity ligands for the 5-HT1A receptor” (Bioorg Med Chem Lett, 1997):

Assays:
[1] = target: T1, 5-hydroxytryptamine receptor 1A (Homo sapiens, UniProt P08908); assay: Binding affinity against 5-hydroxytryptamine 1A receptor
T1 sequence (P08908 whole entry): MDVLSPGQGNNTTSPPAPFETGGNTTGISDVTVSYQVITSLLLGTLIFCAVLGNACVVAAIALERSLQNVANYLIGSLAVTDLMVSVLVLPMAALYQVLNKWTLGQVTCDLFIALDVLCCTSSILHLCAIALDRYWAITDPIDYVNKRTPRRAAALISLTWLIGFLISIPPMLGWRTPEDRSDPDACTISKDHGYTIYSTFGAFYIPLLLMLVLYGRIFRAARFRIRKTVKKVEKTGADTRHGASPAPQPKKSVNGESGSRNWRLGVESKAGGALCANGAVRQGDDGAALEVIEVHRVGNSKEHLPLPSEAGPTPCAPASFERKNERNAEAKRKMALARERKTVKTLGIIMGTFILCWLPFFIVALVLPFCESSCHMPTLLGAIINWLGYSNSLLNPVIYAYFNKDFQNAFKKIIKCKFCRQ

Rattus norvegicus [2] = assay: Compound was measured for its antipsychotic activity in the rat conditioned avoidance test at a dose of 15 mg/kg administered perorally; type: functional; conditions: route oral
[3] = target: Serotonin 3 (5-HT3) receptor (Homo sapiens) (UniProt P46098+A5X5Y0+O95264+Q70Z44+Q8WXA8); assay: Compound was measured for its binding affinity at 5-hydroxytryptamine 3 receptor at a concentration of 10 uM using [3H]BRL-43694 as radioligand; type: protein-complex assay
[4] = target: T2, 5-hydroxytryptamine receptor 2C (Homo sapiens) (UniProt P28335); assay: Compound was measured for its binding affinity at 5-hydroxytryptamine 1C receptor at a concentration of 100 nM using [3H]mesulergine as radioligand
T2 sequence (whole entry): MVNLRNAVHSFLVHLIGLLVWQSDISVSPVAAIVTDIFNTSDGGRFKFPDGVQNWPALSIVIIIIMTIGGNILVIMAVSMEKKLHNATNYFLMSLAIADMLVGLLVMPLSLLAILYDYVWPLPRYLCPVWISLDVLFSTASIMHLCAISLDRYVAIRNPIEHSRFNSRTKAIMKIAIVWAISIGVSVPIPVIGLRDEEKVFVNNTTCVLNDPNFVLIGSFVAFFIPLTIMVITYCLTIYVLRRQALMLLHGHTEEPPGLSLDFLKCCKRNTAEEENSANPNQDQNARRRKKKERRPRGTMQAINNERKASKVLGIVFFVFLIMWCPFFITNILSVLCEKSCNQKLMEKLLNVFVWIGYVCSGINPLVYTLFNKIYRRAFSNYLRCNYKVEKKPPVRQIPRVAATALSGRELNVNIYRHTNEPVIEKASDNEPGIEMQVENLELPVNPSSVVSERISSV

[5] = target: T1, 5-hydroxytryptamine receptor 1A; assay: Compound was measured […] for its binding affinity at 5-hydroxytryptamine 1A receptor using [3H]8-OH-DPAT as radioligand
[6] = target: 5-hydroxytryptamine receptor 1B (Homo sapiens) (UniProt P28222); assay: Compound was measured for its binding affinity at 5-hydroxytryptamine 1B receptor at a concentration of 100 nM using [125I]CYP as radioligand
D(2) dopamine receptor = D(2) dopamine receptor (Homo sapiens, UniProt P14416)
Description: Compound was measured in vivo for its binding affinity at Dopamine receptor D2 using [3H]spiperone as radioligand.

[7] = target: Serotonin 2 (5-HT2) receptor (Homo sapiens) (UniProt P41595+P28223+P28335); assay: Compound was measured for its binding affinity at 5-hydroxytryptamine 2 receptor at a concentration of 10 uM using [3H]ketanserin as radioligand; type: protein assay
D(3) dopamine receptor [8] = target: T3, D(3) dopamine receptor (Homo sapiens, UniProt P35462); assay: Compound was measured […] for its inhibition of Dopamine receptor D3 at a concentration of 100 nM
[9] = target: 5-hydroxytryptamine receptor 1D (Homo sapiens) (UniProt P28221); assay: Compound was measured for its binding affinity at 5-hydroxytryptamine 1D receptor at a concentration of 10 uM using [3H]5-HT as radioligand
[10] = target: D(1A) dopamine receptor (Homo sapiens) (UniProt P21728); assay: Compound was measured for its binding affinity at Dopamine receptor D1 at a concentration of 10 uM using [3H]SCH-23390 as radioligand
[11] = target: T4, Adrenergic receptor alpha-1 (Homo sapiens, UniProt P35348+P25100+P35368); assay: Compound was measured […] for its binding affinity at Alpha-1 adrenergic receptor using [3H]prazosin as radioligand.
T4 sequence (P35348 whole entry): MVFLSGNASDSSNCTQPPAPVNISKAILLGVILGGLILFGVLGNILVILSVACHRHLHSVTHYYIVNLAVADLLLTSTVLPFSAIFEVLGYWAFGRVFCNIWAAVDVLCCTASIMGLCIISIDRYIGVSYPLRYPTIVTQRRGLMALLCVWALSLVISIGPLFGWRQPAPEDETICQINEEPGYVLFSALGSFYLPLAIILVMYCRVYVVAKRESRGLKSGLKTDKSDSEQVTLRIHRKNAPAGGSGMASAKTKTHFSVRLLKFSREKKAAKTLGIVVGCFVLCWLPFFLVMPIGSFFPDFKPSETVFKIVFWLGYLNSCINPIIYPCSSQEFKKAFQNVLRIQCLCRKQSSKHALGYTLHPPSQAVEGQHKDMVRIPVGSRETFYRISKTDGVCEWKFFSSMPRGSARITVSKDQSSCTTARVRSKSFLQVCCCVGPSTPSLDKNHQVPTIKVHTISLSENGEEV
T4 sequence (P25100 whole entry): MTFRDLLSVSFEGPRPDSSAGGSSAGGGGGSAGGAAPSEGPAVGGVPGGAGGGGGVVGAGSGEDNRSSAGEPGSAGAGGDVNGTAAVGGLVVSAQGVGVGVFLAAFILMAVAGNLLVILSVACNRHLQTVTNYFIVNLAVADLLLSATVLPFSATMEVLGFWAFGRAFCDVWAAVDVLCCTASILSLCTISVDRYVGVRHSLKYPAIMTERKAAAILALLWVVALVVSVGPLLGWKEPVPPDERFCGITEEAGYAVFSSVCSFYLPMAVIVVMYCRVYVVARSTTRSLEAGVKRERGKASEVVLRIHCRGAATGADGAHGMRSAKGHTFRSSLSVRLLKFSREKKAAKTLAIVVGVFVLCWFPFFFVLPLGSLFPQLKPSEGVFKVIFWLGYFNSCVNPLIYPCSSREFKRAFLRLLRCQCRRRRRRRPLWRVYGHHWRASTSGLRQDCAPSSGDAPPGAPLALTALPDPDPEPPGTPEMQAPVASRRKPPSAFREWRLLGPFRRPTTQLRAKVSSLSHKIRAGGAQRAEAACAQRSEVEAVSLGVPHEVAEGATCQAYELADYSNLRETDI
T4 sequence (P35368 whole entry): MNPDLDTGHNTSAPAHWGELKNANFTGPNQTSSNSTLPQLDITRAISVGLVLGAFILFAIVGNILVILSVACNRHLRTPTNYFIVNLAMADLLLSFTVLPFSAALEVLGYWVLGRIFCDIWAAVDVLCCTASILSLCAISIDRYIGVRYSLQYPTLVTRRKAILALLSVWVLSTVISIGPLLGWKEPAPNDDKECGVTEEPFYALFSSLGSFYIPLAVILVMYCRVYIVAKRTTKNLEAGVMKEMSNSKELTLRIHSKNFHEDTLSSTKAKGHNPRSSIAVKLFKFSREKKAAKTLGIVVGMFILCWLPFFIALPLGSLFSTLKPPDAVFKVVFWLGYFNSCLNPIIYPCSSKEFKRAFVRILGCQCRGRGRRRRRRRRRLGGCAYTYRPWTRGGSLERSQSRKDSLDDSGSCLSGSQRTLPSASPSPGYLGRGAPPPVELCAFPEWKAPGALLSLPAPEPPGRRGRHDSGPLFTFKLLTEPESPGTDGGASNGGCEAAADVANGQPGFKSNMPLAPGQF

Rattus norvegicus [12] = assay: Compound was measured for its antipsychotic activity in the rat conditioned avoidance test, at a dose of 15 mg/kg administered perorally; type: functional; conditions: route oral
D(3) dopamine receptor [13] = target: T3, D(3) dopamine receptor
[14] = target: 5-hydroxytryptamine receptor 5B (Rattus norvegicus, UniProt P35365); assay: Binding affinity against serotonin receptor
Rattus norvegicus [15] = assay: Compound was measured for its antipsychotic activity in the rat conditioned avoidance test, at a dose of 15 mg/kg compound administered perorally; type: functional; conditions: route oral

Serotonin 2 (5-HT2) receptor (Homo sapiens), sequence (P28223 whole entry, looked up, one chain of several): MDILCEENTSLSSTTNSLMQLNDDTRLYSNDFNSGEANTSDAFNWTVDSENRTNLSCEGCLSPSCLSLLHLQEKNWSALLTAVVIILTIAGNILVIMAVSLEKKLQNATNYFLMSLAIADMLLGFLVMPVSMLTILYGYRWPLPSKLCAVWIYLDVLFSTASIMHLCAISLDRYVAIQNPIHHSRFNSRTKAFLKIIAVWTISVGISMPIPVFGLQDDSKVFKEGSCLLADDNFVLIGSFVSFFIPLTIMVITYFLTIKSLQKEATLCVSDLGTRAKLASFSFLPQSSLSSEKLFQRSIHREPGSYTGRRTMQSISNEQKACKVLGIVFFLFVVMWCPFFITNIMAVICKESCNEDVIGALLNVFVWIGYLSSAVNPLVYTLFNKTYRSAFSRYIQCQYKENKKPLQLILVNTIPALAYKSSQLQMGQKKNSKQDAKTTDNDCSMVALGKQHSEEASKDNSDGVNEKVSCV
Serotonin 2 (5-HT2) receptor (Homo sapiens), sequence (P41595 whole entry, looked up, one chain of several): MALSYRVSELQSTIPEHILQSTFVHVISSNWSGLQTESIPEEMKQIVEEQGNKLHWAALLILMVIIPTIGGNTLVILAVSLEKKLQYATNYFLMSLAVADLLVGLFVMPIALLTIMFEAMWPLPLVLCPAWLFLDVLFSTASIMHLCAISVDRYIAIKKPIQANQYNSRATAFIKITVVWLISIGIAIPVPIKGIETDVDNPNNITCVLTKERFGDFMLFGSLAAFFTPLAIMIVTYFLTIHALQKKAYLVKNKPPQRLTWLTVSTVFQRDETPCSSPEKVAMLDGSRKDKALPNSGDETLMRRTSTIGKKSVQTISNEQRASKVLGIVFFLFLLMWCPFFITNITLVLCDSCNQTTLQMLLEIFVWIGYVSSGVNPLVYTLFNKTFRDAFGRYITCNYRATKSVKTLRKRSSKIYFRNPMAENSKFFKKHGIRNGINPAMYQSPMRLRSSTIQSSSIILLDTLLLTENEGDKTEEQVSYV
D(1A) dopamine receptor (Homo sapiens), sequence (P21728 whole entry): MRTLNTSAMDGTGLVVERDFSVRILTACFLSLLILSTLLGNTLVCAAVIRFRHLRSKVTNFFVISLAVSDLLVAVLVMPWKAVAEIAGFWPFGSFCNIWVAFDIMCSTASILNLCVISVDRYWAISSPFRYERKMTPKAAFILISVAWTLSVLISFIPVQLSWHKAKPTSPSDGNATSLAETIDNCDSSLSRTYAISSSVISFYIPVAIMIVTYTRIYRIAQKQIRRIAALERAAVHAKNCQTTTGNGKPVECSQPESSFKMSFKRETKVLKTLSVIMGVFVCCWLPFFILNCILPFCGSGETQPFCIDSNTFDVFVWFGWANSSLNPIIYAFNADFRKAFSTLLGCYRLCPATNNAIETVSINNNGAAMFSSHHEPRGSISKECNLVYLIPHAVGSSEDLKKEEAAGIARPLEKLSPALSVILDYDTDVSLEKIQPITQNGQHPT
5-hydroxytryptamine receptor 1B (Homo sapiens), sequence (P28222 whole entry): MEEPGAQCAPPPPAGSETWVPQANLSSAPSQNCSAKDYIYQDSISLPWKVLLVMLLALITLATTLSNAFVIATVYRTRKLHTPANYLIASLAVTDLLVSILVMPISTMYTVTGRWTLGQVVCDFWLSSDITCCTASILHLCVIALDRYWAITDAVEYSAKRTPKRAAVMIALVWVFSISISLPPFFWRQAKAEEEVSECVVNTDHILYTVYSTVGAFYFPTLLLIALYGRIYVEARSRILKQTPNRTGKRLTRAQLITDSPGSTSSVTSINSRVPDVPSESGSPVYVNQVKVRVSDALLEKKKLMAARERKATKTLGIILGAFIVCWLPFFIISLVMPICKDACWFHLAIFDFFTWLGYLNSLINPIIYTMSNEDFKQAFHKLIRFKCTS
5-hydroxytryptamine receptor 1D (Homo sapiens), sequence (P28221 whole entry): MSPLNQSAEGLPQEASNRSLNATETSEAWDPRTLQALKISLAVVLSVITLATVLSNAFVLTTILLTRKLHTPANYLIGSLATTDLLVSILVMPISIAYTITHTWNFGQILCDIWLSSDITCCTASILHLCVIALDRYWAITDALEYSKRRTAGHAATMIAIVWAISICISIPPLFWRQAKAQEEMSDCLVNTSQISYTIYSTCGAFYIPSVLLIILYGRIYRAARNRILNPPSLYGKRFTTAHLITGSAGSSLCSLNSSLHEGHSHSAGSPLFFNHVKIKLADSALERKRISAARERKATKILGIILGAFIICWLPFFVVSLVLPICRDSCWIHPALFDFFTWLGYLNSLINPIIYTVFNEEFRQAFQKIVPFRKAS
D(2) dopamine receptor, sequence (P14416 whole entry): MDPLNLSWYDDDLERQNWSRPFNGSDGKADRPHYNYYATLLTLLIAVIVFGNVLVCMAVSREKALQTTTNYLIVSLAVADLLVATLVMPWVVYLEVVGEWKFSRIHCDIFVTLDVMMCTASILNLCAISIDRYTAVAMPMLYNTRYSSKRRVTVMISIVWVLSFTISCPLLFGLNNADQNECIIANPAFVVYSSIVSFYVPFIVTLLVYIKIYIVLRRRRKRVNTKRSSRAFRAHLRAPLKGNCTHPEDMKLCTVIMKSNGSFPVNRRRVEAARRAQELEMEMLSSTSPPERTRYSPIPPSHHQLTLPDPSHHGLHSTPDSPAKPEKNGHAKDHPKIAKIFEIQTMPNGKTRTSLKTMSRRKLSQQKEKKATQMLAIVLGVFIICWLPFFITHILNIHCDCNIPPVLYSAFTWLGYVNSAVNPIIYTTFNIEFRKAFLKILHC
T3 sequence (P35462 whole entry): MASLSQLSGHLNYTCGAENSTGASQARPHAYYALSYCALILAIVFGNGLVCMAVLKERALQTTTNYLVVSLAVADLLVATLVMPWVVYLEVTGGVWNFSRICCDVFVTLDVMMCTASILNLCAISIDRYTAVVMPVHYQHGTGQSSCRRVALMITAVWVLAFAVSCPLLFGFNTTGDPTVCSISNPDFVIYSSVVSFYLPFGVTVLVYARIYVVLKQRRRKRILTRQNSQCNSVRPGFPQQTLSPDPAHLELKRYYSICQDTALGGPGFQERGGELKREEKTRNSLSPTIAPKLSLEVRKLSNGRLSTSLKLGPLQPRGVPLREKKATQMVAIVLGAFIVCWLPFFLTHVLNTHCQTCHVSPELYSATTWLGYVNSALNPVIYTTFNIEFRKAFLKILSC
5-hydroxytryptamine receptor 5B, sequence (P35365 whole entry): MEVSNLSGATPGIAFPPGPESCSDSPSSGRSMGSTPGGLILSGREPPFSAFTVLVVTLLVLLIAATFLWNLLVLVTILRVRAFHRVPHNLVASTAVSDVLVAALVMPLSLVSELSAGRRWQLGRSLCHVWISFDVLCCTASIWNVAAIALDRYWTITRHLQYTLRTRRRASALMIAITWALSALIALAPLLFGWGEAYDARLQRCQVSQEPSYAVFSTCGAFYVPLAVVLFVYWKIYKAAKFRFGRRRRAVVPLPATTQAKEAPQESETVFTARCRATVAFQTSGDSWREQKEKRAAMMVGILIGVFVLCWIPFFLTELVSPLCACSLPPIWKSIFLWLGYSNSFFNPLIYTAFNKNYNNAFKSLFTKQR

Row | Structure (SMILES) | Ki [1] [nM] | inhibition [3] [%] | inhibition [4] [%] | Ki [5] [nM] | inhibition [6] [%] | Ki (D(2) dopamine receptor) [nM] | inhibition [7] [%] | inhibition (D(3) dopamine receptor [8]) [%] | inhibition [9] [%] | inhibition [10] [%] | Ki [11] [nM] | other results
1 | CCCCCCN1CCc2c([nH]c3ccccc23)C1 | 79 |  |  |  |  |  |  |  |  |  |  | 
2 | O=C(c1cccc(CN2CCN3c4ccccc4OCC3C2)c1)N1CCCCC1 (stereo not drawn) |  | 5.1 | 5.6 | 12 | 3.4 | > 1000 | 7.5 | 64 | 63.8 | 14.7 | 200 | inhibition in vivo at 15 mg/kg (Rattus norvegicus [2]): -49%
3 | COc1cccc2c1C1CCN(CCCN3C(=O)c4ccccc4S3(=O)=O)C[C@H]1C2 (stereo partly drawn) | 0.89 |  |  |  |  |  |  |  |  |  |  | 
4 | CCCN1CCC[C@@H]2c3cc(O)ccc3CC[C@H]21 | 3.87 |  |  |  |  |  |  |  |  |  |  | 
5 | O=C(c1cccc(CN2CCN3c4ccccc4OCC3C2)c1)N1CCc2ccccc21 (stereo not drawn) |  | 12.5 | -2.8 | 6.5 | 8.1 | > 1000 | 7.5 | 54 | 58.9 | 42.4 | > 1000 | inhibition in vivo at 15 mg/kg (Rattus norvegicus [12]): -20%
6 | O=C1c2ccccc2C(=O)N1CCCCN1CCn2c(cc3ccccc32)C1 | 74 |  |  |  |  |  |  |  |  |  |  | 
7 | O=C(c1cccc(CN2CCc3c([nH]c4ccccc34)C2)c1)N1CCc2ccccc21 |  | 22.6 | 8.7 | 9.2 | 8.8 | > 1000 | 29.9 | 56 | 86.1 | 40.8 | 2.9 | inhibition in vivo at 15 mg/kg (Rattus norvegicus [12]): -37%
8 | CC(C)Oc1ccccc1N1CCN(Cc2cccc(C(=O)N3CCCCC3)c2)CC1 [MAZAPERTINE] |  |  |  |  |  |  |  |  |  |  |  | Ki (D(3) dopamine receptor [13]): 1.8 nM
9 | O=C(c1cccc(CN2CCc3c([nH]c4ccccc34)C2)c1)N1CCCCC1 |  | 13.6 | 5.5 | 13 | 1 | 374 | 18 | 27 | 74.7 | 23.7 | 36 | inhibition in vivo at 15 mg/kg (Rattus norvegicus [12]): -74%
10 | FC(F)(F)c1ccc2c(c1)N1CCNCC1CC2 (stereo not drawn) |  |  |  |  |  |  |  |  |  |  |  | Ki [14]: 67 nM
11 | CC(C)Oc1ccccc1N1CCN(Cc2cccc(C(=O)N3CCc4ccccc43)c2)CC1 |  |  |  | 3.4 |  |  |  |  |  |  | 1.7 | inhibition in vivo at 15 mg/kg (Rattus norvegicus [15]): -96%
